From patent publication US5441968A, “Therapeutically active fluoro substituted benzimidazoles” (priority 1993, dated 1995)

Experiments:
[1] = Chemical stability in aqueous buffer solution at different pH values; assay type: physicochemical; conditions: for Chemical stability at pH2 t 10%: pH 2, 37° C., time after which 10% has decomposed
Protocol: The chemical stability of the compounds of the invention has been followed kinetically at low concentration at 37° C. in aqueous buffer solution at different pH values. The results in Table 3 show the half life (t 1/2) at pH 7, that is the time period after which half the amount of the original compound remains unchanged, and t10% at pH 2, that is the time period after which 10% of the original compound has decomposed.

gastric acid secretion = experiment: Inhibition of gastric acid secretion in the conscious dog; assay type: in vivo, dog (Harrier); conditions: for Inhibition of acid secretion: id
Protocol: The potency for inhibition of acid secretion is measured in the male rat and the dog, both intravenously and intraduodenally. When it comes to relevance of the animal test data for potency of a given compound in man for the present type of compounds, it is believed that potency in man will correspond to a level somewhere between what is measured in the male rat and what is measured in the dog.
Inhibition of Gastric Acid Secretion and Bioavailability in the Conscious Dog
Harrier dogs of either sex were used. They were equipped with a duodenal fistula for the administration of test compounds or vehicle and a cannulated ventricular fistula for the collection of gastric secretions.
Before secretory tests the animals were fasted for about 18 h but water was freely allowed. Gastric acid secretion was stimulated by a 4 h infusion of histamine dihydrochloride (12 ml/h) at a dose producing about 80% of the individual maximal secretory response, and gastric juice collected in consecutive 30-min fractions. Test substance or vehicle was given id or iv 1 h after starting the histamine infusion, in a volume of 0.5 ml/kg body weight. The acidity of the gastric juice samples were determined by titration to pH 7.0, and the acid output calculated. The acid output in the collection periods after administration of test substance or vehicle were expressed as fractional responses, setting the acid output in the fraction preceding administration to 1.0. Percentage inhibition was calculated from fractional responses elicited by test compound and vehicle. ED50 values were obtained by graphical interpolation on log dose-response curves, or estimated from single-dose experiments under the assumption of the same slope of the dose-response curve for all test compounds. All results reported are based on acid output 2 h after dosing.

Row | SMILES | Chemical stability at pH2 t 10% [1] [h] | ED50 (gastric acid secretion; Canis lupus familiaris, dog, id administration, histamine-stimulated, acid output 2 h after dosing) [µmol/kg] | Inhibition of acid secretion (gastric acid secretion; Dog 1, 1.5 μmol/kg) [%] | Inhibition of acid secretion (gastric acid secretion; Dog 2, 1.5 μmol/kg) | half-life ([1]; pH 7, 37° C., read-out: Chemical stability at pH 7 t1/2 (converted)) [h]
1 | COc1ccnc(C[S+]([O-])c2nc3c(F)cccc3n2COC(=O)OCc2ccccc2)c1 (stereo not drawn) [Example 1, 4-fluoro-2-[[(4-methoxy-2-pyridinyl)methyl]sulfinyl]-1H-benzimidazole-1-ylmethyl benzyl carbonate] | 2 | – | – | – | –
2 | CCOC(=O)OCn1c([S+]([O-])Cc2cc(OC)ccn2)nc2c(F)cccc21 (stereo not drawn) [Example 2, 4-fluoro-2-[[(4-methoxy-2-pyridinyl)methyl]sulfinyl] -1H-benzimidazole-1-ylmethyl ethyl carbonate] | 3 | 1.3 | 55 | no effect | 16
